The source of these data is publication PMC3947464 (ChemMedChem, 2013).

One series deals with PC3 cells. As to the kind of experiment: MTT anti-proliferation assay, PC3. The series is classed as cell-based. The following applies: Homo sapiens, PC-3, 48 h, read-out: IC50 tumor cell growth inhibition PC3. On the technique in general: Tetrazolium assays rely on reduction of a dye to a coloured formazan, in cell work by metabolically active cells.
Another series deals with K562 cells. Nature of the series: MTT anti-proliferation assay, K562. The class given is cell-based. As to conditions: Homo sapiens, K562, 48 h, read-out: IC50 tumor cell growth inhibition K562.
For the next series, the system named is U937 cells. As to the kind of experiment: MTT anti-proliferation assay, U937. The class given is cell-based. The following applies: Homo sapiens, U-937, 48 h, read-out: IC50 tumor cell growth inhibition U937.
A further series has as its system MCF7 cells. Nature of the series: MTT anti-proliferation assay, MCF7. The class given is cell-based. The following applies: Homo sapiens, MCF7, 48 h, read-out: IC50 tumor cell growth inhibition MCF7.
Another series concerns HL60 cells. As to the kind of experiment: MTT anti-proliferation assay, HL60. The class given is cell-based. As to conditions: Homo sapiens, HL-60, 48 h, read-out: IC50 tumor cell growth inhibition HL60.
Series [1] has as its system U937 cell line. Nature of the series: Western blot of acetylated histone H3, H4, p21 and acetylated tubulin in U937. The series is classed as cell-based, Human. As to conditions: U937, 1 µM; for cell permeability and intracellular HDAC inhibition: 6h and 24h, western blot; for acetylated tubulin level, 24h: after 24h. Background: Immunoblotting shows a protein as a band on a membrane.

A short description of another series: Water solubility. The series is classed as physicochemical. As to conditions: compared among the derived molecules.
Series [2] can be described thus: Body weight and organ toxicity in the U937 xenograft study. The series is classed as in vivo. The following applies: 100 mg/kg/d intragastric, measured every two days.
The test system of a further series is U937 xenograft. Nature of the series: In vivo antitumor assay against U937 xenograft. Further details: species or system athymic nude mice. As to conditions: 100 mg/kg/d intragastric, 16 days; for mean weight of tumors: negative control 2.66 g.
Series [3] concerns U937 cell line. Nature of the series: Western blot of c-Raf, p-Erk, Erk, p-Akt, Akt in U937. The series is classed as cell-based, Human. As to conditions: U937, 1 µM, 24h.

One may read the IC50 as the concentration needed to halve the response being measured. For `COc1ccccc1C(=O)N[C@H](C(=O)Nc1ccc(C(=O)NO)cc1)c1ccccc1` [Compound D11, (S)-N-(2-((4-(hydroxycarbamoyl)phenyl)amino)-2-oxo-1-phenylethyl)-2-methoxybenzamide], the 50% inhibitory concentration (IC50) with PC3 cells came out at 20500 ± 1730 nM; in the series with K562 cells, 3160 ± 110 nM; in the series on U937 cells, 1710 ± 30 nM; in the series on MCF7 cells, 8230 ± 320 nM; with HL60 cells, 780 ± 20 nM.

For `COc1ccccc1NC(=O)N[C@H](C(=O)Nc1ccc(C(=O)NO)cc1)c1ccccc1` [Compound D18, (S)-N-hydroxy-4-(2-(3-(2-methoxyphenyl)ureido)-2-phenylacetamido)benzamide], the half-maximal inhibitory concentration (IC50) with PC3 cells turned out to be 1510 ± 50 nM; with K562 cells it was 1550 ± 50 nM; with U937 cells, 1310 ± 70 nM; in the series on MCF7 cells it was 5140 ± 430 nM; in the series with HL60 cells, 3830 ± 290 nM. The “cell permeability and intracellular HDAC inhibition” value in the series with U937 cell line [1] was “cell permeable and can inhibit intracellular and even nuclear HDACs”. In addition, the “acetylated tubulin level, 24h” value in the series with U937 cell line [1] is recorded as “reduced”.

As to `O=C(NO)c1ccc(NC(=O)[C@@H](NS(=O)(=O)c2cccc3ccccc23)c2ccccc2)cc1` [Compound D5, (S)-N-hydroxy-4-(2-(naphthalene-1-sulfonamido)-2-phenylacetamido)benzamide], the concentration for half-maximal inhibition (IC50) with PC3 cells stood at 10100 ± 570 nM; in the series on K562 cells, 930 ± 20 nM; in the series on U937 cells, 1630 ± 90 nM; with MCF7 cells it was 8660 ± 730 nM; in the series with HL60 cells, 2880 ± 160 nM. For the same compound, the “cell permeability and intracellular HDAC inhibition” value in the series with U937 cell line [1] was “cell permeable and can inhibit intracellular and even nuclear HDACs”. Also, the “acetylated tubulin level, 24h” value with U937 cell line [1] is listed as “still significant”.

Turning to `CN(C)c1cccc2c(S(=O)(=O)N[C@H](C(=O)Nc3ccc(C(=O)NO)cc3)c3ccccc3)cccc12` [Compound D17, (S)-4-(2-(5-(dimethylamino)naphthalene-1-sulfonamido)-2-phenylacetamido)-N-hydroxybenzamide], in “Water solubility”, the water solubility entry is “best water solubility”. Besides, the “mice body weight loss” value in series [2] was “No evidence of mice body weight (measured every two days) loss”. The IC50 in the series on PC3 cells was 3310 ± 160 nM; in the series with K562 cells, 700 ± 10 nM; with U937 cells, 1240 ± 20 nM; with MCF7 cells, 5340 ± 220 nM; in the series with HL60 cells it was 3660 ± 130 nM. Also, in the series with U937 cell line [1], the “cell permeability and intracellular HDAC inhibition” value was “cell permeable and can inhibit intracellular and even nuclear HDACs”. For the same compound, the “acetylated tubulin level, 24h” value in the series with U937 cell line [1] is “reduced”. For the same compound, the “inhibitory ratio (tumor weight)” value in the series on U937 xenograft was 53.57%. In the series with U937 xenograft, the “mean weight of tumors” value is recorded as 1.24 g. In the series with U937 cell line [3], the p-Akt level entry is “significantly decreased”.

With `O=C(NO)c1ccc(NC(=O)[C@@H](NC(=O)c2cccc(Br)c2)c2ccccc2)cc1` [Compound D13, (S)-3-bromo-N-(2-((4-(hydroxycarbamoyl)phenyl)amino)-2-oxo-1-phenylethyl)benzamide], the IC50 was found to be 31600 ± 2330 nM in the series on PC3 cells; 1580 ± 60 nM with K562 cells; 1390 ± 30 nM with U937 cells; 9710 ± 440 nM in the series on MCF7 cells; 1530 ± 40 nM with HL60 cells. Besides, the “cell permeability and intracellular HDAC inhibition” value with U937 cell line [1] is “cell permeable and can inhibit intracellular and even nuclear HDACs”. In addition, the “acetylated tubulin level, 24h” value with U937 cell line [1] is on record as “still significant”.

Take `O=C(NO)c1ccc(NC(=O)[C@@H](NC(=O)c2ccc(F)cc2)c2ccccc2)cc1` [Compound D4, (S)-4-fluoro-N-(2-((4-(hydroxycarbamoyl)phenyl)amino)-2-oxo-1-phenylethyl)benzamide]: the half-maximal inhibitory concentration (IC50) in the series on PC3 cells is 5880 ± 360 nM; in the series with K562 cells, 1590 ± 60 nM; in the series with U937 cells, 1640 ± 80 nM; in the series with MCF7 cells it was 2040 ± 170 nM; in the series on HL60 cells, 4550 ± 210 nM.

With `COc1ccc(C(=O)N[C@H](C(=O)Nc2ccc(C(=O)NO)cc2)c2ccccc2)cc1` [Compound D12, (S)-N-hydroxy-4-(2-(4-methoxybenzamido)-2-phenylacetamido)benzamide], the concentration for half-maximal inhibition (IC50) is 3000 ± 150 nM in the series on PC3 cells; 1930 ± 120 nM in the series with K562 cells; 1550 ± 40 nM with U937 cells; 6280 ± 330 nM in the series on MCF7 cells; 1800 ± 90 nM in the series with HL60 cells.

For the compound `O=C(CCCCCCC(=O)Nc1ccccc1)NO` [SAHA, Suberoyl anilide hydroxamic acid, reference compound], the IC50 in the series on K562 cells is 1860 ± 70 nM. In addition, in the series with U937 xenograft, the “mean weight of tumors” value is 2.00 g.

`O=C(NO)c1ccc(NC(=O)[C@@H](NC(=O)c2ccc3ccccc3c2)c2ccccc2)cc1` [Compound D3, (S)-N-(2-((4-(hydroxycarbamoyl)phenyl)amino)-2-oxo-1-phenylethyl)-2-naphthamide]: the concentration for half-maximal inhibition (IC50) was found to be 3770 ± 270 nM in the series on PC3 cells; 1190 ± 40 nM in the series with K562 cells; 1320 ± 70 nM in the series with U937 cells; 2920 ± 150 nM in the series on MCF7 cells; 3150 ± 130 nM in the series with HL60 cells. Also, in the series on U937 cell line [1], the “cell permeability and intracellular HDAC inhibition” value is “cell permeable and can inhibit intracellular and even nuclear HDACs”. Further, the “acetylated tubulin level, 24h” value with U937 cell line [1] was “still significant”. The p-Akt level entry in the series with U937 cell line [3] was “significantly decreased”.

On to `O=C(NO)c1ccc(NC(=O)[C@@H](NC(=O)c2ccccc2)c2ccccc2)cc1` [Compound D7, (S)-4-(2-benzamido-2-phenylacetamido)-N-hydroxybenzamide], for which the IC50 in the series with PC3 cells is 5670 ± 350 nM; with K562 cells, 1470 ± 70 nM; in the series with U937 cells, 1770 ± 60 nM; with MCF7 cells it was 10800 ± 930 nM; in the series with HL60 cells it was 2020 ± 150 nM.
